Laboratory results taken from the supplement of paper PMC10307832.

Legend:
Assay in all cases: relative viability (nuclei count vs DMSO), 5 days (fraction); higher = more cells survive
Daporinad + Olaparib = compound: O=C(/C=C/c1cccnc1)NCCCCC1CCN(C(=O)c2ccccc2)CC1 [Daporinad] + O=C(c1cc(Cc2n[nH]c(=O)c3ccccc23)ccc1F)N1CCN(C(=O)C2CC2)CC1 [Olaparib] (partner 8 µM)
In short: (§1)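 For relative viability, nuclei counts in treated wells were divided by those in vehicle wells. Lung cancer cell lines had been pin-tool dosed in 1536-well plates the day after seeding and cultured for 5 days, then fixed and stained in one step (final 0.05% Triton X-100, 1% formaldehyde, 1 ug/ml Hoechst) and imaged at 4×. Doses were one drug alone or a fixed anchor-drug dose plus five library-drug doses (not always all listed) in √10 steps, and values are duplicate-plate medians.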

R406 + Dasatinib = compound: COc1cc(Nc2ncc(F)c(Nc3ccc4c(n3)NC(=O)C(C)(C)O4)n2)cc(OC)c1OC [R406] + Cc1nc(Nc2ncc(C(=O)Nc3c(C)cccc3Cl)s2)cc(N2CCN(CCO)CC2)n1 [Dasatinib] (partner 0.075 µM)
In short: as §1

Daporinad + Crizotinib = compound: O=C(/C=C/c1cccnc1)NCCCCC1CCN(C(=O)c2ccccc2)CC1 [Daporinad] + C[C@@H](Oc1cc(-c2cnn(C3CCNCC3)c2)cnc1N)c1c(Cl)ccc(F)c1Cl [Crizotinib] (partner 1 µM)
In short: as §1

R406 + Lapatinib = compound: COc1cc(Nc2ncc(F)c(Nc3ccc4c(n3)NC(=O)C(C)(C)O4)n2)cc(OC)c1OC [R406] + CS(=O)(=O)CCNCc1ccc(-c2ccc3ncnc(Nc4ccc(OCc5cccc(F)c5)c(Cl)c4)c3c2)o1 [Lapatinib] (partner 2 µM)
In short: as §1

Cell Line	relative viability (Daporinad + Olaparib; first compound 0.0005 µM)	relative viability (Daporinad + Olaparib; first compound 0.001581 µM)	relative viability (Daporinad + Olaparib; first compound 0.005 µM)	relative viability (Daporinad + Olaparib; first compound 0.01581 µM)	relative viability (R406 + Dasatinib; first compound 0.08 µM)	relative viability (R406 + Dasatinib; first compound 0.253 µM)	relative viability (R406 + Dasatinib; first compound 0.8 µM)	relative viability (R406 + Dasatinib; first compound 2.53 µM)	relative viability (R406 + Dasatinib; first compound 8 µM)	relative viability (Daporinad + Crizotinib; first compound 0.0005 µM)	relative viability (Daporinad + Crizotinib; first compound 0.001581 µM)	relative viability (Daporinad + Crizotinib; first compound 0.005 µM)	relative viability (Daporinad + Crizotinib; first compound 0.01581 µM)	relative viability (R406 + Lapatinib; first compound 0.08 µM)	relative viability (R406 + Lapatinib; first compound 0.253 µM)	relative viability (R406 + Lapatinib; first compound 0.8 µM)	relative viability (R406 + Lapatinib; first compound 2.53 µM)	relative viability (R406 + Lapatinib; first compound 8 µM)
SW 1573	0.367	0.312	0.323	0.274	0.492	0.539	0.602	0.366	0.149	0.834	0.831	0.728	0.479	1.13	1.22	1.14	1.27	0.825
H3255	0.534	0.58	0.526	0.594	0.33		0.372	0.285	0.317	0.782	0.937	0.853	0.864	0.257	0.264	0.249	0.235	0.233
Calu-6	0.495	0.433	0.391	0.268						0.902	0.846	0.797	0.514	1.02	1.25	1.09	0.745	0.476
NCI-H1792	0.466	0.493	0.228	0.222	0.781	0.906	0.871	0.551	0.401	0.916	1.01	0.844	0.976	0.844	1.1	1.06	0.776	0.765
NCI-H2170	0.56	0.57	0.609	0.337	0.481	0.579	0.613	0.267	0.324	1.19	0.723	1.2	1.27	0.253	0.25	0.247	0.272	0.258
NCI-H1650	0.724	0.601	0.431	0.443	0.302	0.362	0.288	0.16	0.168	1.12	1.09	1	0.764	0.724	0.926	0.802	0.154	0.119
NCI-H2087	0.69	0.575	0.205	0.236	0.782	0.903	1.15		0.481	0.75	0.708	0.945	0.674	0.826	1.26	1.36	0.254	0.966
HCC-366	0.334		0.189	0.095	0.62	0.799	0.735	0.546	0.235	0.696	0.628	0.864	0.634	0.908	1.15	1.17		0.356
NCI-H838	0.699	0.631	0.482	0.341	0.25	0.287	0.52	0.204	0.219	0.886	0.92	0.959	0.675	0.886	1.11	1.36	0.114	0.182
